12 compounds from US5068325A, “4,5,7,8-tetrahydro-6H-thiazolo[5,4-d]azepines, their preparation and their use as pharmaceutical compositions” (priority 1988, dated 1991) can be followed below.

As a reminder, the Ki is the dissociation constant of the complex between target and ligand, obtained from inhibition or displacement. Usually IC50 stands for the concentration that gives 50% inhibition.

Where two headings read alike, the source gives them in different places.

The target of series [1] is T1, serotonin-2(5-HT2)-receptors (Rattus norvegicus, UniProt P14842).
T1 construct: The frontal cortex was dissected out and placed in ice cold 0.32 M saccharose solution; from tissue; host or cells: rat frontal cortex homogenate (Chbb:Thom strain)
T1 sequence (P14842 whole entry): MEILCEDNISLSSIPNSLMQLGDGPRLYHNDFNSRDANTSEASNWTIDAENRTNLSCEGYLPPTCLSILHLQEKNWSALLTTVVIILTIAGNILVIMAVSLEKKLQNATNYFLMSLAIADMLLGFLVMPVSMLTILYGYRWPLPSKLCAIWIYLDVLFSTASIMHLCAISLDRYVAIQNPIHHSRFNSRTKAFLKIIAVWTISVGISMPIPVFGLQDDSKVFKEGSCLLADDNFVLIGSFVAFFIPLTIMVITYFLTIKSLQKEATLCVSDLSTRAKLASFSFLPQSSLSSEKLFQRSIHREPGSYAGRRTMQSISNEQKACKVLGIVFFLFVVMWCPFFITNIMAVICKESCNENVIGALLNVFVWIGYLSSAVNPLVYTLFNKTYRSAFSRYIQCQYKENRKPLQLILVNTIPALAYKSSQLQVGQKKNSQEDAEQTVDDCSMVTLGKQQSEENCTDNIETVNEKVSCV
Nature of the series: affinity for serotonin-2 (5-HT2) receptors by displacement experiments with [3H]-spiperone (rat frontal cortex). Format: binding. Here is the method:
(§1) Specific binding is obtained from total binding minus non-specific binding.
A male rat (Chbb:Thom strain, about 200 g) was decapitated. The brain was removed. The frontal cortex was dissected out and placed in ice cold 0.32 M saccharose solution; its moist weight was determined. It was homogenised in 10 times the volume (0.32 M) of saccharose solution for 1 minute at 800 rpm in a Potter S (made by Braun of Melsungen). The homogenised material was centrifuged for 10 minutes at 1000×g (=3,000 rpm with a rotor 8×38 ml) in a refrigerated centrifuge. The supernatant was decanted off and homogenised (Polytron, position 5, 1 minute); the sediment was discarded. 5 ml (=0.5 g moist weight) of the tissue suspension thus obtained were made up to 40 ml with buffer (50 mm tris-HCl; pH=7.7 at ambient temperature).
0.8 ml of the buffered homogenised tissue (=10 mg moist weight) were incubated with 0.1 ml of a solution of [^3 H]-spiperone (about 0.2 nmol/1 final concentration) and with 0.1 ml of a solution of the test substance (increasing concentration) for 15 minutes at 37° C. (triple measurement). Incubation was stopped by rapid filtering through a Whatman GF/B filter; rinsing was carried out 3 times, each time with 5 ml of ice cold buffer within a maximum of 10 seconds (Filter Prep Messrs. Ismatec). The radioactivity of the filters was determined by liquid scintillation measurement.
The specific binding is obtained from the total binding minus the non-specific binding. The averages of the triple measurements are entered in a system of coordinates as in 1.3. The IC50 value is the concentration which inhibits the specific binding of [^3 H]-spiperone by 50%.

Series [2] relates to MPTP monkeys. Nature of the series: post-synaptic dopaminergic activity in MPTP monkeys. The following applies: for effect on MPTP-induced symptoms: MPTP-treated rhesus monkeys; for minimal effective dose: Primates, in Macaca mulatta, im, rhesus monkeys, i.m., read-out: minimum dose (MED) required to alleviate the Parkinson's symptoms. Format: in vivo, rhesus monkey. From the text:
6. Determining the post-synaptic dopaminergic activity in MPTP monkeys (Modified Method of R. S. Burns et al., Proc. Natl. Acad. Sci. 80. 4546 (1983))
The neurotoxin 1-methyl-4-phenyl-1,2,3,6- tetrahydro-pyridine (MPTP) produces in humans and monkeys an irreversible syndrome which in its clinical, pathological, biochemical and pharmacological appearance is very similar to idiopathic Parkinson's disease (Markey et al., Nature 311, 464 (1984)). The reason for this similarity is that MPTP selectively destroys those dopaminergic nerve cells in the substantia nigra of the brain which are also lost by degenerative processes in Parkinson's disease. There is even some discussion that MPTP or an MPTP-like substance might be formed in the body and trigger Parkinson's disease (S. H. Snyder, Nature 311, 514 (1984)). Possibly because of the specific MPTP metabolism, the clinical formation of the MPTP-induced Parkinson syndrome has hitherto been detected only in humans and monkeys. The MPTP model produced in the rhesus monkey is therefore exceptionally suitable for testing the activity of post-synaptically acting dopamine agonists. For this purpose, rhesus monkeys were given MPTP in overall doses of up to about 6 mg/kg of body weight, until the following symptoms appeared: The animals were akinetic and unable to take water and food.
It is clear that with the compounds according to the invention there is no sedative effect or ataxia at a dosage which is several times the MED, which can be put down to the absence of a corresponding activity mediated by the α2- receptors.

Series [3] addresses dopamine D2-receptors (Rattus norvegicus, UniProt P61169). Nature of the series: affinity for dopamine D2-receptors by displacement experiments with [3H]-spiperone (rat striatum membranes). Type of series: binding. The following applies: for Ki: [3H]-spiperone, high-affinity form of the dopamine receptor; for α2-IC50 / D2-Ki: relative affinity for dopamine-D2 receptors compared with α2-adrenoceptors, the higher, the higher the D2/α2 selectivity. Here is the method: 1Determining the affinity for dopamine D2-receptors by displacement experiments with [^3 H]-spiperone (Modified Method of W. Billard et al., Life Sci. 35, 1885 (1984) and D. J. de Vries and P. M. Beart, Eur. J. Pharmacol. 109, 417 (1985))
Male rats (of the Chbb:Thom strain weighing about 200 g) were killed by a blow to the back of the neck. The brains were removed and dissected on ice. The striata were dissected out, weighed and homogenised in 25 volumes of tris buffer (50 mM tris-HCl, 1 mM EDTA, 5 mM MgCl2 and 1 mM ascorbic acid) for 30 seconds in an Ultra-Turrax at maximum speed, followed by 10 cycles in a Potter-Elvehjem at 1400 rpm. The pellet obtained after centrifuging at 50,000×g at 4° C. for 15 minutes was again taken up in 25 ml of tris buffer and centrifuged under the above conditions. The supernatant was discarded and the pellet obtained was incubated in 25 ml of tris buffer at 37° C. for 30 minutes and then centrifuged again at 50,000×g at 4° C. for 15 minutes. Finally, the pellet obtained was mixed with tris buffer to obtain a homogenate dilution of 1:500 (based on the weight of the striata).
1 ml aliquots of the membrane preparation were incubated with 1 ml of a solution of 0.25 nM [^3 H]-spiperone ([…], Messrs. DuPont NEN) and at increasing concentrations of the test substance (10^-11 to 10^-4 M) at ambient temperature for one hour. Incubation was ended by the addition of 5 ml of ice cold tris buffer and filtration using Whatman GF/B filters. The filters were washed twice, each time with 5 ml of ice cold buffer. The radioactivity of the filters was determined by liquid scintillation measurement in Instagel^(R) (Messrs. Canberra Packard). Non-specific binding was determined in the presence of 10^-5 M haloperidol (Sigma Chemical Co.).
Displacement curves were obtained from the data using the TOPFIT programming package (G. Heinzel in "Pharmacokinetics During Drug Development: Data Analysis and Evaluation Techniques", G. Bozler and J. M. van Rossum Eds., G. Fischer Verlag, Stuttgart 1982, 207).

Series [4] deals with T2, alpha-2 receptors (Rattus norvegicus, UniProt P22909).
T2 sequence (P22909 1-465): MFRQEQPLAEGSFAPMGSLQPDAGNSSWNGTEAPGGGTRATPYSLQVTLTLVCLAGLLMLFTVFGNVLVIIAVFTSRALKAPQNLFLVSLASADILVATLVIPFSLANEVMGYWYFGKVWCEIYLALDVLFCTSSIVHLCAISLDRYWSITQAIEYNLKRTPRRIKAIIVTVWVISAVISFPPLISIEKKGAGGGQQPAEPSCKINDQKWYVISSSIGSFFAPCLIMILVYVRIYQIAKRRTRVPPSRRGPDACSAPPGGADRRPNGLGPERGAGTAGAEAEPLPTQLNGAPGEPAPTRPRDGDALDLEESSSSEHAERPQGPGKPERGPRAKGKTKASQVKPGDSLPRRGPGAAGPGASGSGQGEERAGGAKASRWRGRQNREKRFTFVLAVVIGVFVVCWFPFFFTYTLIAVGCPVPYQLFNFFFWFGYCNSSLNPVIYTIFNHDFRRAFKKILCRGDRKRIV
As to the kind of experiment: affinity for alpha-2 receptors by displacement experiments with [3H]-clonidine (rat cortex membranes). The following applies: read-out: α2-IC50. Format: binding.

Series [5] has as its target T3, serotonin-1A(5-HT1A) receptors (Rattus norvegicus, UniProt P19327).
T3 construct: The frontal cortex was dissected out; from tissue; host or cells: rat frontal cortex homogenate (Chbb:Thom strain)
T3 sequence (P19327 1-422): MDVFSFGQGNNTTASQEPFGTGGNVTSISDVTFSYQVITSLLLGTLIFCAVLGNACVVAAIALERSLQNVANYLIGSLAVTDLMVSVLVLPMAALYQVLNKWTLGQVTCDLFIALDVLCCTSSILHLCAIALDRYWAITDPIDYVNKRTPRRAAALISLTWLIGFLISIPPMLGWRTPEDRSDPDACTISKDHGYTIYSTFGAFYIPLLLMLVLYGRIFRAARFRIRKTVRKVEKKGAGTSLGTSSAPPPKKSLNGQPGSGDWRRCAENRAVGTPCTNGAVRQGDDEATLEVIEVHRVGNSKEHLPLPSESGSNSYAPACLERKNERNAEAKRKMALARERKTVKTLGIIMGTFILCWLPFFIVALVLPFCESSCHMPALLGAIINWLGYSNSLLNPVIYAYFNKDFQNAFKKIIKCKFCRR
Nature of the series: affinity for serotonin-1A (5-HT1A) receptors by displacement experiments with [3H]-8-OH-DPAT (rat frontal cortex). Type of series: binding. Here is the method: 3. […] (Method of S. J. Peroutka, J. Neurochem. 47, 529 (1986), modified according to H. Gozlan et al., J. Receptor Research 7. 195 (1987))
A male rat (Chbb:Thom strain weighing about 200 g) was decapitated. The brain was removed and placed in ice-cold buffer (50 mmol/1 tris-HCl plus hydrochloric acid ad pH =7.4 at ambient temperature). The frontal cortex was dissected out; its moist weight was determined. It was homogenised in 40 times its volume of buffer (Polytron, position 6, 10 seconds), then centrifuged for 20 minutes at 45,000×g in the refrigerated centrifuge. The pellet was washed in 100 times its volume of buffer and centrifuged again as described above. The resulting pellet was resuspended in 40 times its volume of buffer and pre-incubated for 10 minutes at 37° C. Sixty times the volume of buffer were added and centrifuging was carried out as above. The resulting pellet was washed with 100 times the volume of buffer and centrifuged as above. The pellet was resuspended in buffer (0.8 ml/10 mg) and briefly homogenised in the Polytron. This homogenised tissue was cooled in ice until ready for incubation.
Incubation was stopped by rapid filtering through Whatman GF/B filters; rinsing was carried out twice, each time with 5 ml of ice cold buffer (Filter Prep, Messrs. Ismatec). The radioactivity of the filters was determined by liquid scintillation measurement.
as §1

Setting [6] is: [3H]-8-OH-DPAT, rat frontal cortex, read-out: 5-HT1A-Ki.

Sequence of dopamine D2-receptors (P61169 whole entry): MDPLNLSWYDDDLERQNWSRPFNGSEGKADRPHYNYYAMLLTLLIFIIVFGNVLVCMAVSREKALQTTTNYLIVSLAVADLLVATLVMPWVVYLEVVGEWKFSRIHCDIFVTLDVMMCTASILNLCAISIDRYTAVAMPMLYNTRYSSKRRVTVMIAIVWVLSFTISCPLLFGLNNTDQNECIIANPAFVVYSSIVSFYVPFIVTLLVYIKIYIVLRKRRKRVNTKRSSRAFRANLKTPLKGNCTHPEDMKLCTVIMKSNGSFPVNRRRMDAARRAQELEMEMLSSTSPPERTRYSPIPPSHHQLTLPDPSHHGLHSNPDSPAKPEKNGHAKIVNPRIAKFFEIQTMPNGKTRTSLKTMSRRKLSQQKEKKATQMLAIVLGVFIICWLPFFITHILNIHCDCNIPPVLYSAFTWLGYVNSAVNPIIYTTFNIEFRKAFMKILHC

The compound `CCCN(CCC)C1CCc2cccc(O)c2C1` (stereo not shown) [Example 8-OH-DPAT, 8-OH-DPAT, reference compound] registered a Ki in series [1] of 2880 nM.
Take `CN1CCc2cccc3c2[C@H]1Cc1ccc(O)c(O)c1-3` [apomorphine, reference compound]: the “effect on MPTP-induced symptoms” value in series [2] is on record as “temporary cessation of this phenomenon”.
Regarding `COc1ccc(OC)c(C=CCN2CCc3nc(N)sc3CC2)c1` [Example 4p, 2-Amino-6-(3-(2,5-dimethoxy-phenyl)allyl)-4,5,7,8-tetrahydro-6H-thiazolo[5,4-d]azepine], in series [3], the affinity, expressed as Ki, was 0.89 nM and the “α2-IC50 / D2-Ki” value is 100. The 50% inhibitory concentration (IC50) in series [4] worked out at 89 nM. Moreover, in series [2] (0.05 mg/kg i.m. (MED)), the Duration of activity is ~ 2 hours and the Side effects entry was “none”. Also, in series [2] (0.30 mg/kg i.m.), the Duration of activity lay within 2.0 to 5 h and the Side effects entry was “none”. The minimal effective dose in series [2] amounted to 0.05 mg/kg.
As for `N[C@@H](Cc1ccc(O)c(O)c1)C(=O)O` [levodopa, reference compound], the “effect on MPTP-induced symptoms” value in series [2] is recorded as “temporary cessation of this phenomenon”.
As for `Nc1nc2c(s1)CCN(CC=Cc1ccccc1)CC2` [Example 1, 2-Amino-6-cinnamyl-4,5,7,8-tetrahydro-6H-thiazolo-[5,4-d]azepine], the inhibition constant (Ki) in series [5] (setting [6]) amounted to 4340 nM; in series [1], 356 nM.
As to `O=C(c1ccc(F)cc1)C1CCN(CCn2c(=O)[nH]c3ccccc3c2=O)CC1` [Ketanserine, reference compound], the inhibitory constant (Ki) in series [5] turned out to be 2830 nM.
Consider `Nc1nc2c(s1)CCN(C/C=C\c1ccccc1)CC2` [Example 12b, (Z)-2-Amino-6-(3-phenyl™2-propen-I-yl)-4,5,7,8-tetrahydro-6H-thiazolo[5,4-d]azepine], for which the Ki stood at 4.4 nM in series [3], 53000 nM in series [5] (setting [6]) and 860 nM in series [1]. Also, the “α2-IC50 / D2-Ki” value in series [3] was determined as 450. In addition, the 50% inhibitory concentration (IC50) in series [4] came out at 2000 nM.
With `Nc1nc2c(s1)CCN(CC=Cc1ccc(-c3ccccc3)cc1)CC2` [Example 4w, 2-Amino-6-(3-(4-biphenyl)allyl)-4,5,7,8-tetrahydro-6H-thiazolo[5,4-d]azepine], the Ki in series [3] came to 3 nM; in series [5] (setting [6]), 36300 nM; in series [1], 1030 nM. For the same compound, in series [3], the “α2-IC50 / D2-Ki” value is recorded as 733. Moreover, the IC50 in series [4] amounted to 2200 nM.
Consider `Nc1nc2c(s1)CCN(CC=Cc1ccc(Cl)cc1)CC2` [Example 3a, 2-Amino-6-(3-(4-chloro-phenyl)allyl)-4,5,7,8-tetrahydro-6H-thiazolo[5,4-d]azepine], for which, in series [3], the affinity, expressed as Ki, was 7 nM and the “α2-IC50 / D2-Ki” value amounted to 88. Moreover, the concentration for half-maximal inhibition (IC50) in series [4] stood at 620 nM.
For the compound `Cc1cccnc1C=CCN1CCc2nc(N)sc2CC1` [Example 11i, 2-Amino-6-(3-(3-methyl-2-pyridyl)allyl)-4,5,7,8-tetrahydro-6H-thiazolo[5,4-d]azepine], in series [3], the affinity, expressed as Ki, was 2.6 nM and the “α2-IC50 / D2-Ki” value turned out to be 576. In series [4], the IC50 was 1500 nM. Moreover, in series [2] (0.05 mg/kg i.m. (MED)), the Duration of activity is given as ~ 1.5 hours and the Side effects entry was “none”. In series [2] (0.20 mg/kg i.m.), the Duration of activity lay in the range of 2.0 to 5 h and the Side effects entry is recorded as “none”. In series [2], the minimal effective dose worked out at 0.05 mg/kg.
On to `Nc1nc2c(s1)CCN(CC1CC1c1ccccc1)CC2` (stereo not shown) [Example 17, 2-Amino-6-(2-phenyl-1-cyclopropyl-methyl)-4,5,7,8-tetrahydro-6H-thiazolo[5,4-d]azepine], for which the figures for the Ki in series [5] (setting [6]) and in series [1] were 1060 nM and 339 nM, respectively.
Regarding `Nc1nc2c(s1)CCN(CC=Cc1ccccc1Cl)CC2` [Example 4e, 2-Amino-6-(3-(2-chloro-phenyl)allyl)-4,5,7,8-tetrahydro-6H-thiazolo[5,4-d]azepine], in series [3], affinity was put at a Ki of 3 nM and the “α2-IC50 / D2-Ki” value is recorded as 63. Also, the IC50 in series [4] is 190 nM.
